Residues, ends and D or L forms follow the SMILES beside them. *: point of attachment. FITC = O=C1OC2(c3ccc(O)cc3Oc3cc(O)ccc32)c2ccc(NC(=S)*)cc21
Columns and labels:
AP2 μ2 [1] = molecular target: T1, AP2 μ2 (Homo sapiens, UniProt Q96CW1); test: FP displacement assay, AP2 μ2; format: binding; conditions: probe FITC-ATG9A 5 nM, 50 mM sodium phosphate pH 7.4, room temperature, at least three technical replicates, read-out: KD values ± SEM
T1 construct: AP2_Mu__Q96CW1_160_435; GST (cleaved yes); made in house; host or cells: Escherichia coli BL21-Gold(DE3)
T1 sequence (Q96CW1 160-435): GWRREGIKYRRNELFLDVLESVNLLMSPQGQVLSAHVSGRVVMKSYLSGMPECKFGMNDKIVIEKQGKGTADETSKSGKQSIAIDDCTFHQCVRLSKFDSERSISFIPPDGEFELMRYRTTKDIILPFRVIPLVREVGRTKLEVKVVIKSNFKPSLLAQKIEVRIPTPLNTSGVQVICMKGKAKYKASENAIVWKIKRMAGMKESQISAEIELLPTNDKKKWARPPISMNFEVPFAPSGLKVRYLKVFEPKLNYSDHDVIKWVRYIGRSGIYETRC
Procedure: (§1) FP experiments were performed as described previously (Kliche et al, [2021]). Shortly, in order to monitor the binding event, FITC‐labelled peptides were used (excitation 495 nm, emission: 535 nm) and the FP signal was recorded in mP on a SpectraMax iD5 Multi‐Mode Microplate Reader (Molecular Devices) by measuring the emitted light in two angels. The measurements were performed at room temperature and prepared in nonbinding black half area 96‐well microplates (Corning®; 50 μl/well). For measuring direct binding, that is saturation curves, a 1:1 dilution series of protein domain (25 μl/well) was generated in 50 mM sodium phosphate buffer pH 7.4 and the measurement performed with 5 nM FITC‐labelled peptide (25 μl/well). The buffer‐corrected values were subsequently plotted with PRISM and fitted to the quadratic equation (Gianni et al, [2005]).
The 1:1 dilution series in this experiment was performed with the unlabelled peptide in 50 mM sodium phosphate buffer pH 7.4, so that each well‐contained unlabelled peptide (25 μl) at a certain concentration and pre‐formed complex (25 μl). The KD values of this indirectly monitored binding event were calculated as described previously (Nikolovska‐Coleska et al, [2004]). All measurements were at least in technical triplicates as well as biological duplicates when indicated. An amplitude shift between repeat measurements in the displacement experiments was occasionally observed due to variations in the protein preparations. If that was the case, the “active” protein concentration was back‐calculated according to the quadratic equation from the saturation curves performed in parallel. By comparing the active protein concentrations in the complex between different protein preparations, the amplitude was normalised.

AP2 μ2 [2] = molecular target: T1, AP2 μ2; test: Phosphomimetic ProP-PD selection, AP2 μ2; conditions: phosphomimetic enrichment score of the wild-type/phosphomimetic (E) pair at the phosphosite, PM_HD2 phage selection, all overlapping peptides and replicates; positive = phosphomimetic enhances binding; P-value in brackets not taken
Procedure: Selections using the PM_HD2 phage library were performed as described previously with minor modification to the original protocol. The corresponding tag protein (either GST or MBP) was first used during negative selections. Selections were run for 4 days. • Bait and tag proteins (10–15 μg in 100 μl PBS) were immobilised in 96‐well MaxiSorb plate (NUNC) o.n. at 4°C. • Escherichia coli OmniMax bacteria were grown in 2YT medium supplemented with tetracycline (100 μg/ml) at 37°C and 200 rpm. • Plates with immobilised bait/tag proteins were blocked with 0.5% BSA in PBS for 1 h at 4°C. • Phage library (10 μl/well) was prepared by diluting 10× with PBS and adding one‐fourth of the volume of PEG/NaCl. For phage precipitation, prepared library was incubated for 10 min on ice followed by centrifugation for 10 min at 10,000 × g at 4°C. […]
Based on the results from phage pool ELISAs, samples from selection Day 3 and 4 were selected for NGS, as described previously (Benz et al, [2022]). • Peptide coding regions were amplified and dual‐barcoded by PCR. […] From the columns, samples were eluted with 30 μl TE (10 mM Tris–HCl, 1 mM EDTA. pH 7.5) buffer and quantified with Quant‐iT PicoGreen dsDNA Assay Kit. • Samples were sequenced on MiSeq (MSC 2.5.0.5/RTA 1.18.54) with a 151 nt (Read1) setup using “Version3” chemistry. […]

GABARAPL2 ATG8 = molecular target: T2, GABARAPL2 ATG8 (Homo sapiens, UniProt P60520); test: FP saturation experiment, GABARAPL2 ATG8; conditions: FP saturation (direct binding), 5 nM FITC-labelled peptide, 50 mM sodium phosphate pH 7.4, room temperature; at least technical triplicates; reference for probe peptide PMID: 33436498; read-out: KD [µM] + SE
T2 construct: GABARAPL2_ATG8__P60520_2_115; GST (cleaved yes); made in house; host or cells: Escherichia coli BL21-Gold(DE3)
Procedure: as §1

MAP1LC3B ATG8 = molecular target: T3, MAP1LC3B ATG8 (Homo sapiens, UniProt Q9GZQ8); test: FP saturation experiment, MAP1LC3B ATG8; conditions: FP saturation (direct binding), 5 nM FITC-labelled peptide, 50 mM sodium phosphate pH 7.4, room temperature; at least technical triplicates; reference for probe peptide PMID: 33436498; read-out: KD [µM] + SE
T3 construct: MAP1LC3B ATG8; made in house; host or cells: Escherichia coli BL21-Gold(DE3)
Procedure: as §1

KPNA4 ARM minor = molecular target: T4, KPNA4 ARM minor (Homo sapiens, UniProt O00629); test: FP saturation experiment, KPNA4 ARM (minor); conditions: FP saturation (direct binding), 5 nM FITC-labelled peptide, 50 mM sodium phosphate pH 7.4, room temperature; at least technical triplicates; reference for probe peptide PMID: 35044719; read-out: KD [µM] + SE
T4 construct: 60-487; GST (cleaved yes); made in house; host or cells: Escherichia coli BL21-Gold(DE3)
Procedure: as §1

PIN1 WW domain = test: FP displacement assay, PIN1 WW domain (GST-tagged); format: binding, human; conditions: probe FITC-SMAD3, technical triplicates
Procedure: For FP, ITC and crystallisation, the tag was removed with the appropriate protease either on beads (0.1 mg/ml thrombin (Cytiva) in PBS, 1 mM dithiothreitol (DTT)) or by dialysis in cleavage buffer (Human Rhinovirus (HRV) 3C protease: 50 mM Tris–HCl pH 7.4, 150 mM NaCl, 1 mM β‐mercaptoethanol), both procedures were overnight. In case of HRV protease cleavage, the tag was separated from the target protein domain by reverse ion metal affinity chromatography using Ni^2+ beads for purification, whereas thrombin was removed using a benzamidine column (Cytiva). Affinity measurements for SNX27 PDZ were performed on the MBP‐tagged construct, as well as PIN1 WW domain on the GST‐tagged construct. For FP and ITC, proteins were dialysed in 50 mM sodium phosphate buffer pH 7.4, 1 mM DTT. For crystallisation of the NTD of clathrin, the protein was further purified by a S200 Sepharose column (Cytiva) using 20 mM Tris–HCl pH 7.4, 150 mM NaCl and 1 mM DTT.
FP experiments were performed as described previously (Kliche et al, [2021]). Shortly, in order to monitor the binding event, FITC‐labelled peptides were used (excitation 495 nm, emission: 535 nm) and the FP signal was recorded in mP on a SpectraMax iD5 Multi‐Mode Microplate Reader (Molecular Devices) by measuring the emitted light in two angels. […]

GGA1 VHS = molecular target: T5, GGA1 VHS (Homo sapiens, UniProt Q9UJY5); test: FP saturation experiment, GGA1 VHS; conditions: FP saturation (direct binding), 5 nM FITC-labelled peptide, 50 mM sodium phosphate pH 7.4, room temperature; at least technical triplicates; reference for probe peptide RiboVD, Mihalič et al, to be published; read-out: KD [µM] + SE
T5 construct: GGA1_VHS__Q9UJY5_1_157; GST (cleaved yes); made in house; host or cells: Escherichia coli BL21-Gold(DE3)
T5 sequence (Q9UJY5 1-157): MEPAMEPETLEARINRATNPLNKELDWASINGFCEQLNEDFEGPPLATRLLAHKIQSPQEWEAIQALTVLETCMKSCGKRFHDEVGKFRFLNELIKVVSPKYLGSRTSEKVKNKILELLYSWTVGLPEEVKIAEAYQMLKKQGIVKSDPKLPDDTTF
Procedure: as §1

T4 sequence (O00629 60-487): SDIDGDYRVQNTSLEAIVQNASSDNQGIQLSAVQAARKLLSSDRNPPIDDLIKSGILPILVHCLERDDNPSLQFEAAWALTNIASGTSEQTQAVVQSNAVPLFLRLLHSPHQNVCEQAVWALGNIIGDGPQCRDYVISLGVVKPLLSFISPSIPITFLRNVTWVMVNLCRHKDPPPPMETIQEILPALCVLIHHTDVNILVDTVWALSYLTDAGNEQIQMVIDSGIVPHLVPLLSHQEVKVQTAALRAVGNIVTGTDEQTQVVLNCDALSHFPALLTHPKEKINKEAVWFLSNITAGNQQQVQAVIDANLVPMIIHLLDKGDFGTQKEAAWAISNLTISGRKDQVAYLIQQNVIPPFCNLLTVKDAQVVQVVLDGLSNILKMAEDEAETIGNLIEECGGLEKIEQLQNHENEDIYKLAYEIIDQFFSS
T2 sequence (P60520 2-115): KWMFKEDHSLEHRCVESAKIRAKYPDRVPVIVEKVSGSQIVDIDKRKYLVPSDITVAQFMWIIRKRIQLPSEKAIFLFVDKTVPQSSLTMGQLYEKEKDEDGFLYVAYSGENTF

CC[C@H](C)[C@H](NC(=O)[C@@H](NC(=O)[C@@H]1CCCN1C(=O)[C@H](CCC(=O)O)NC(=O)[C@H](CO)NC(=O)[C@H](C)NC(=O)[C@@H]1CCCN1C(=O)[C@H](CCSC)NC(=O)[C@@H]1CCCN1C(=O)[C@H](CCC(N)=O)NC(=O)[C@H](Cc1ccc(O)cc1)NC(=O)[C@@H]1CCCN1C(=O)[C@@H](NC(=O)[C@@H](NC(=O)[C@H](CCSC)NC(C)=O)[C@@H](C)O)[C@@H](C)CC)C(C)C)C(=O)N[C@@H](CS)C(N)=O [PCBP1_179–194 E] (Ac-MTIPYQPMPASEPVIC-NH2)
Kd (AP2 μ2 [1]): 2050 ± 90 nM | PES (AP2 μ2 [2]): 1 (0.15)

CC(C)C[C@H](NC(=O)[C@H](Cc1c[nH]cn1)NC(=O)[C@@H](NC(=O)[C@H](Cc1c[nH]c2ccccc12)NC(=O)[C@H](CC(=O)O)NC(=O)[C@H](CC(=O)O)NC(=O)[C@H](CC(=O)O)NC(=S)Nc1ccc2c(c1)C(=O)OC21c2ccc(O)cc2Oc2cc(O)ccc21)[C@@H](C)O)C(=O)N[C@@H](CO)C(=O)N[C@@H](CO)C(=O)N[C@@H](CCCCN)C(N)=O [FITC-SQSTM1]
Kd (GABARAPL2 ATG8): 11 ± 1 µM | Kd (MAP1LC3B ATG8): 2.5 ± 0.2 µM

CC[C@H](C)[C@H](NC(=O)[C@H](C)NC(=O)[C@H](CCCNC(=N)N)NC(=O)CNC(=O)[C@@H](NC(=O)[C@H](CCCNC(=N)N)NC(=O)CNC(=O)[C@H](CCC(=O)O)NC(=O)[C@H](CCSC)NC(=O)[C@H](CCSC)NC(=O)[C@H](CC(=O)O)NC(=O)[C@H](Cc1ccc(O)cc1)NC(=O)[C@@H](NC(=O)[C@H](CCCNC(=N)N)NC(=O)[C@H](CCCCN)NC(=O)[C@@H]1CCCN1C(=S)Nc1ccc2c(c1)C(=O)OC21c2ccc(O)cc2Oc2cc(O)ccc21)[C@@H](C)O)C(C)C)C(N)=O [FITC-NCOR2] ({FITC}-PKRTYDMMEGRVGRAI-NH2)
Kd (KPNA4 ARM minor): 0.013 ± 0.0008 µM

CC(=O)N[C@@H](Cc1ccccc1)C(=O)N1CCC[C@H]1C(=O)N[C@@H](CO)C(=O)N[C@@H](CCC(=O)O)C(=O)N[C@@H](Cc1ccc(O)cc1)C(=O)N[C@H](C(=O)N[C@@H](CCCCN)C(=O)N[C@@H](CC(C)C)C(=O)N[C@@H](CC(C)C)C(=O)N[C@@H](CCC(=O)O)C(=O)N[C@@H](CCC(=O)O)C(=O)N[C@@H](CC(N)=O)C(=O)N[C@@H](CCC(=O)O)C(=O)N[C@H](C(=O)N[C@@H](CCC(=O)O)C(=O)N[C@@H](C)C(N)=O)[C@@H](C)O)[C@@H](C)O [BAIAPL1_392–407 E] (Ac-FPSEYTKLLEENETEA-NH2)
Kd (AP2 μ2 [1]): 490 ± 80 nM | PES (AP2 μ2 [2]): 1.2 (0.095)

H3COC-MSETQSS(pS/E)PTKGVLMY-NH2 [PIAS2_493–507 wt, wild-type PIAS2 493-507 peptide]
binding in FP displacement experiment (PIN1 WW domain): none of the peptides tested

CC[C@H](C)[C@H](NC(=O)[C@H](Cc1c[nH]cn1)NC(=O)[C@H](CC(C)C)NC(=O)[C@H](CC(C)C)NC(=O)[C@H](CC(=O)O)NC(=O)[C@H](CCC(=O)O)NC(=O)[C@H](CC(=O)O)NC(=O)[C@H](CO)NC(=O)[C@H](CC(=O)O)NC(=O)[C@H](CC(=O)O)NC(=S)Nc1ccc2c(c1)C(=O)OC21c2ccc(O)cc2Oc2cc(O)ccc21)C(=O)O [FITC-IGF2R] ({FITC}-DDSDEDLLHI-OH)
Kd (GGA1 VHS): 31 ± 4 µM
